Legend:
Assay type in all cases: cell-based; call rule not given here
Endothelin-1 receptor = biological target: T1, Endothelin-1 receptor (Homo sapiens, UniProt P25101); assay: Inhibition of binding of [125I]ET1 to cloned human Endothelin A receptor expressed in LtK- cells
T1 sequence (P25101 whole entry): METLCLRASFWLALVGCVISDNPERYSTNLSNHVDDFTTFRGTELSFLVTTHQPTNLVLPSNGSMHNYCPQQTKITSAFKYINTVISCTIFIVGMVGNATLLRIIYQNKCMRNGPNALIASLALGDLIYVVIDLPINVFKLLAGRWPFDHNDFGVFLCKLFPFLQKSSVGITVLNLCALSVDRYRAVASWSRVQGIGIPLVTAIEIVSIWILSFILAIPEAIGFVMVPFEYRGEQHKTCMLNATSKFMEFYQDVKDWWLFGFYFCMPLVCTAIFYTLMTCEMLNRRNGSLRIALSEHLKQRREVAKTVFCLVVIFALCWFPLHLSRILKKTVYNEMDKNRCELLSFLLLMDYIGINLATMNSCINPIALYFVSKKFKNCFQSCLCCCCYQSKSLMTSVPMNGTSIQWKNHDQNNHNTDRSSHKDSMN

[1] = biological target: T2, Endothelin receptor type B (Homo sapiens, UniProt P24530); assay: Inhibition of binding of [125I]ET1 to cloned human Endothelin B receptor expressed in CHO-K1 cells up to 200 uM; non significant
T2 sequence (P24530 whole entry): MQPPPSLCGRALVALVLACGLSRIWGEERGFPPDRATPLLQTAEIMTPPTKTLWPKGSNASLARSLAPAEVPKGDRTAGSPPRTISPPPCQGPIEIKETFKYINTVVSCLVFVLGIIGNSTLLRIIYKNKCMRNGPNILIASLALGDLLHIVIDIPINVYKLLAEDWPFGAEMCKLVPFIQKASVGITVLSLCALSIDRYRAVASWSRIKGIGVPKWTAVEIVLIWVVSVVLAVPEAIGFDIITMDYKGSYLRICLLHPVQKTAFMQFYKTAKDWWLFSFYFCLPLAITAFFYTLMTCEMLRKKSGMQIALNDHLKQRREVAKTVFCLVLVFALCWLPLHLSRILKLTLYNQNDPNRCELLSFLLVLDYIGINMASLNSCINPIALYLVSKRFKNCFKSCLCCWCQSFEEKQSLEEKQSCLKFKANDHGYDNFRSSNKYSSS

[2] = biological target: T2, Endothelin receptor type B; assay: Compound was tested for inhibition of binding of [125I]ET1 to cloned human Endothelin B receptor expressed in CHO-K1 cells

Row | SMILES | IC50 (Endothelin-1 receptor) [µM] | IC50 [1] | IC50 [2] [µM]
1 | O=C(OCc1ccc2c(c1)OCO2)C(c1ccc2c(c1)OCO2)c1c2ccccc2nc2ccccc12 (centres undefined) | 33 | Not Active | –
2 | COC(=O)C(c1ccc(OC)c(OC)c1)c1c2ccccc2nc2ccccc12 (centres undefined) | > 25 | Not Active | –
3 | COC(=O)C(c1ccc2c(c1)OCO2)C1c2ccccc2CCc2ccccc21 (centres undefined) | > 25 | Not Active | –
4 | COC(=O)C(c1ccc(OC)cc1)c1c2ccccc2nc2ccccc12 (centres undefined) | > 25 | Not Active | –
5 | OCC(c1ccc2c(c1)OCO2)c1c2ccccc2nc2ccccc12 (centres undefined) | 0.9 | Not Active | –
6 | COC(=O)C(Cc1ccc2c(c1)OCO2)c1c2ccccc2nc2ccccc12 (centres undefined) | > 25 | Not Active | –
7 | O=C(OCc1ccc(Cl)cc1)C(c1ccc2c(c1)OCO2)c1c2ccccc2nc2ccccc12 (centres undefined) | > 25 | Not Active | –
8 | COC(=O)C(c1ccc(Cl)c(Cl)c1)c1c2ccccc2nc2ccccc12 (centres undefined) | > 25 | Not Active | –
9 | COC(=O)C(c1ccc2c(c1)OCO2)c1c2ccccc2nc2ccccc12 (centres undefined) | – | – | > 250
10 | COC(=O)C(Oc1c2ccccc2nc2ccccc12)c1ccc2c(c1)OCO2 (centres undefined) | – | Not Active | –
11 | O=C(OCc1ccccc1)C(c1ccc2c(c1)OCO2)c1c2ccccc2nc2ccccc12 (centres undefined) | 57 | Not Active | –
12 | COC(=O)C(c1ccc2c(c1)OCO2)c1c2ccccc2nc2c(OC)c(OC)ccc12 (centres undefined) | > 25 | Not Active | –
13 | COC(=O)C(c1ccc2c(c1)OCO2)c1c2ccccc2[n+]([O-])c2ccccc12 (centres undefined) | > 25 | Not Active | –
14 | O=CC(c1ccc2c(c1)OCO2)c1c2ccccc2nc2ccccc12 (centres undefined) | – | Not Active | –
15 | COC(=O)C(c1ccc(Cl)cc1)c1c2ccccc2nc2ccccc12 (centres undefined) | > 25 | Not Active | –
16 | COC(=O)C(c1ccc2c(c1)OCO2)C(c1ccccc1)c1ccccc1 (centres undefined) | > 25 | Not Active | –
17 | COC(=O)C(c1ccc2c(c1)OCO2)c1cc(-c2ccccc2)nc2ccccc12 (centres undefined) | > 25 | Not Active | –
18 | COC(=O)C(c1ccc2c(c1)OCO2)c1c2c(nc3ccccc13)CCCC2 (centres undefined) | – | Not Active | –
19 | c1ccc2c(Cc3ccc4c(c3)OCO4)c3ccccc3nc2c1 | > 25 | Not Active | –
20 | COC(=O)C(c1ccc([N+](=O)[O-])cc1)c1c2ccccc2nc2ccccc12 (centres undefined) | > 25 | Not Active | –
21 | CC(C)(C)c1ccc(COC(=O)C(c2ccc3c(c2)OCO3)c2c3ccccc3nc3ccccc23)cc1 (centres undefined) | > 25 | Not Active | –
22 | COc1ccc(COC(=O)C(c2ccc3c(c2)OCO3)c2c3ccccc3nc3ccccc23)cc1 (centres undefined) | – | Not Active | –
23 | CC(C)(C)OC(=O)C(c1ccc2c(c1)OCO2)c1c2ccccc2nc2ccccc12 (centres undefined) | – | Not Active | –
24 | COC(=O)C(Cc1c2ccccc2cc2ccccc12)c1ccc2c(c1)OCO2 (centres undefined) | 76 | Not Active | –
25 | Cc1cc(C(C(N)=O)c2ccc3c(c2)OCO3)c2ccccc2n1 (centres undefined) | 37 | Not Active | –
26 | NC(=O)C(c1ccc2c(c1)OCO2)c1c2ccccc2nc2ccccc12 (centres undefined) | – | Not Active | –
27 | COC(=O)C(c1ccc2c(c1)OC(C)(C)O2)c1c2ccccc2nc2ccccc12 (centres undefined) | > 25 | Not Active | –
28 | COC(=O)C(c1ccc2c(c1)OCO2)c1cc(C)nc2ccccc12 (centres undefined) | 61 | Not Active | –
